Columns and labels:
[1] = Study 200912: single dose 100-200 mg, SDD versus nonmicronized API PiB, healthy subjects; type: in vivo, human; conditions: for Cmax / AUC / half-life / Tmax / concentration at 24 h: human, plasma, oral; for Cmax / AUC / half-life / Tmax / concentration at 24 h / CL/F: fasted; for Cmax / AUC / half-life / CL/F: geometric mean (95% CI); for AUC: read-out: AUC(0‐∞); for half-life: read-out: t½ (converted); for Tmax / concentration at 24 h: median (range); for concentration at 24 h: read-out: C24
Excerpt: This was a double‐blind, randomized, placebo‐controlled, single‐dose escalation study to investigate the safety, tolerability, and PK of higher single doses of GSK2838232 (Part A) and to evaluate the relative bioavailability of the SDD and crystalline Active Pharmaceutical Ingredient (API) of GSK2838232 (Part B) in healthy subjects dosed as PiB.
Part A was originally planned as a double‐blind, randomized, placebo‐controlled, 4‐period, single‐dose escalation design. Subjects were randomized 3:1 to receive GSK2838232 or placebo. Periods 1 and 2 investigated dosing with 200 mg SDD or nonmicronized API. Further planned dosing of RTV‐boosted single doses of 20 mg and 50 mg SDD was not performed due to early termination of the study to evaluate a serious adverse event (SAE) of a cardiovascular nature (see Safety discussion).
Part B was conducted in a separate group of subjects and was not dependent on the results of Part A. This was a randomized, open‐label, 3‐period, crossover design to assess the relative bioavailability of the nonmicronized API PiB versus the original SDD formulation at a 100 mg dose level (Periods 1 and 2). […] Subjects were randomized 1:1 to each dosing sequence.
(§1) Blood samples were taken via an indwelling cannula or by direct venipuncture, collected into a di‐potassium ethylenediaminetetraacetic acid (K2 EDTA) tube, and placed on wet ice. Samples were centrifuged at approximately 1500g for 10 minutes at approximately 4°C. Exactly 500 μL of the resulting plasma was transferred into labeled 1.4 mL Matrix TrakMate Tubes containing exactly 500 μL of 50 mmol/L citrate buffer, pH 4.0, and mixed well. When 500 μL of plasma was not able to be transferred, the ratio of plasma to citrate buffer was kept at 1:1. Buffered plasma samples were kept on ice and frozen at −70°C within 1 hour of collection. Plasma samples were analyzed for GSK2838232 using a validated analytical method based on protein precipitation, followed by high performance liquid chromatography with tandem mass spectrometry (HPLC/MS/MS) analysis.
(§2) Extracts were analyzed using HPLC (Shimadzu, Nexera, 30 series) and tandem mass spectrometry detection (HPLC‐MS/MS). The mass spectrometer used was an API‐5500 using IonSpray interface (500 V) in positive mode monitoring. The mass transitions were 809.5 to 255.1 and 816.5 to 262.1 for GSK2838232 and [2H7] GSK2838232 (the isotopically labeled internal standard), respectively. The chromatographic conditions utilized a Waters Acquity UPLC BEH C18 column (50 × 2.1 mm, 1.7 μm) with mobile phases consisting of 1 mmol/L ammonium formate:formic acid (100:0.005) (mobile phase A) and acetonitrile:formic acid (100:0.1) (mobile phase B) at a flow rate of 0.6 mL/min, with pump B at 63% held for 2 minutes. The assay was validated to have precision (%RSD) of 0.7%‐6.5% (within‐run) and 1.0%‐5.9% RSD (between‐run) and with accuracy (%bias) of 0.0%‐1.6%. […] The lower limit of quantification (LLQ) was 0.5 ng/mL, using a 50 μL aliquot of K2EDTA acidified plasma. The higher limit of quantification (HLQ) was 500 ng/mL.
(§3) The PK parameters were calculated by standard noncompartmental analysis based on actual sampling times using WinNonlin Version 6.3 or higher. Estimation of AUC used the linear up/log down trapezoidal rule.

[2] = Study HMI116787: single ascending dose, food effect and RTV boosting, SDD PiB, healthy subjects; type: in vivo, human; conditions: for Cmax / Tmax / concentration at 24 h / AUC / half-life: human, plasma, oral; for Cmax / Tmax / concentration at 24 h / AUC / half-life / CL/F: fasted; for Cmax / AUC / half-life / CL/F: geometric mean (95% CI); for Tmax / concentration at 24 h: median (range); for concentration at 24 h: read-out: C24; for AUC: read-out: AUC(0‐∞); for half-life: read-out: t½ (converted)
Protocol: This study was a first‐in‐human, double‐blind, randomized, placebo‐controlled, single dose escalation study of GSK2838232 in healthy subjects conducted in two sequential cohorts with four dosing visits in each cohort. At each visit in each cohort, 6 out of the 8 subjects were randomized to receive the active dose, and 2 out of the 8 subjects were randomized to placebo. Cohort 1 tested escalating doses of 5, 10, and 20 mg GSK2838232 as a Spray Dried Dispersion (SDD) delivered as a powder‐in‐bottle (PiB) suspension; Cohort 2 tested the same formulation at doses of 50 and 100 mg, the effect of a high‐fat breakfast on a 50 mg dose, and the impact of steady‐state dosing of 100 mg once‐daily (QD) RTV on the PK of a single 10 mg dose of GSK2838232 (administered on Day 10 of the 12 days of RTV dosing). All doses were administered in a fasted state, except in the food effect portion of the study.
as §1, §2, §3

[3] = preclinical; cited from earlier work
[4] = 20 mg, single 20 mg API PiB, with ritonavir (predosing 10 days), Study 200912
[5] = 100 mg, single 100 mg API PiB, without ritonavir, Study 200912
[6] = 100 mg, single 100 mg SDD PiB, without ritonavir, Study 200912
[7] = 200 mg, single 200 mg API PiB, without ritonavir, Study 200912
[8] = 200 mg, single 200 mg SDD PiB, without ritonavir, Study 200912
[9] = 50 mg Fed (high, 60% fat meal) versus 50 mg fasted, SDD PiB formulation, Study HMI116787
[10] = RTV for 10 days prior to 10 mg SDD, Study 116787
[11] = single 5 mg SDD PiB, without ritonavir, Study HMI116787
[12] = single 10 mg SDD PiB, with ritonavir 100 mg QD (Day 10 of 12), Study HMI116787
[13] = single 10 mg SDD PiB, without ritonavir, Study HMI116787
[14] = single 20 mg SDD PiB, without ritonavir, Study HMI116787
[15] = single 50 mg SDD PiB, without ritonavir, Study HMI116787
[16] = single 100 mg SDD PiB, without ritonavir, Study HMI116787

SMILES: CC(C)C1=C2[C@H]3CC[C@@H]4[C@@]5(C)CC[C@H](OC(=O)CC(C)(C)C(=O)O)C(C)(C)[C@@H]5CC[C@@]4(C)[C@]3(C)CC[C@@]2([C@@H](O)CN(CCN(C)C)Cc2ccc(Cl)cc2)CC1=O [GSK2838232]
- dose proportionality of exposure ([1]; API, 100 mg to 200 mg single doses, Study 200912): proportional increase in exposure
- Cmax [1, 4]: 4.89 ng/mL
- AUC [1, 4]: 224 ng·h/mL
- half-life [1, 4]: 2470 min
- Tmax [1, 4]: 5.01 h
- concentration at 24 h [1, 4]: 2.56 ng/mL
- Cmax [1, 5]: 6.15 ng/mL
- AUC [1, 5]: 91.7 ng·h/mL
- half-life [1, 5]: 750 min
- Tmax [1, 5]: 3.64 h
- concentration at 24 h [1, 5]: 2.02 ng/mL
- Cmax [1, 6]: 18.7 ng/mL
- AUC [1, 6]: 265 ng·h/mL
- half-life [1, 6]: 1010 min
- Tmax [1, 6]: 2.75 h
- concentration at 24 h [1, 6]: 3.87 ng/mL
- Cmax [1, 7]: 13.6 ng/mL
- AUC [1, 7]: 189 ng·h/mL
- half-life [1, 7]: 954 min
- Tmax [1, 7]: 2.76 h
- concentration at 24 h [1, 7]: 2.85 ng/mL
- Cmax [1, 8]: 29.3 ng/mL
- AUC [1, 8]: 381 ng·h/mL
- half-life [1, 8]: 996 min
- Tmax [1, 8]: 1.75 h
- concentration at 24 h [1, 8]: 5.18 ng/mL
- CL/F ([1]; single 20 mg API PiB, with ritonavir (predosing 10 days), Study 200912): 89.2 (63.3, 126) L/h
- CL/F ([1]; single 100 mg API PiB, without ritonavir, Study 200912): 1090 (670, 1774) L/h
- CL/F ([1]; single 100 mg SDD PiB, without ritonavir, Study 200912): 378 (256, 559) L/h
- CL/F ([1]; single 200 mg API PiB, without ritonavir, Study 200912): 1060 (686, 1638) L/h
- CL/F ([1]; single 200 mg SDD PiB, without ritonavir, Study 200912): 525 (399, 690) L/h
- dose proportionality of exposure ([1]; single doses 100 mg to 200 mg, SDD formulation, without RTV): less‐than‐proportional increase
- Geometric least square mean ratio [90% CI], AUC(0‐∞) [2, 9]: 1.61 (1.266, 2.053)
- Geometric least square mean ratio [90% CI], C max [2, 9]: 1.60 (0.995, 2.566)
- change in t½ with RTV [2, 10]: approximately doubled
- increase in 24‐h concentration (C24) with RTV [2, 10]: ~6.4 fold
- increase in AUC(0‐t) with RTV [2, 10]: approximately 10 fold
- increase in C max with RTV [2, 10]: ~3 fold
- bioavailability after meal relative to the fasted state ([2]; SDD PiB formulation, high‐fat (60%) meal, Study HMI116787): approximately 1.6 fold
- Cmax [2, 11]: 1.52 ng/mL
- Tmax [2, 11]: 2.24 h
- concentration at 24 h [2, 11]: 0 ng/mL
- Cmax [2, 12]: 9.1 ng/mL
- AUC [2, 12]: 389 ng·h/mL
- half-life [2, 12]: 2020 min
- Tmax [2, 12]: 4 h
- concentration at 24 h [2, 12]: 4.64 ng/mL
- Cmax [2, 13]: 3.49 ng/mL
- Tmax [2, 13]: 1.76 h
- concentration at 24 h [2, 13]: 0.63 ng/mL
- Cmax [2, 14]: 8.09 ng/mL
- AUC [2, 14]: 104 ng·h/mL
- half-life [2, 14]: 846 min
- Tmax [2, 14]: 1.75 h
- concentration at 24 h [2, 14]: 1.54 ng/mL
- Cmax [2, 15]: 13.1 ng/mL
- AUC [2, 15]: 195 ng·h/mL
- half-life [2, 15]: 1040 min
- Tmax [2, 15]: 2.02 h
- concentration at 24 h [2, 15]: 3.11 ng/mL
- Cmax [2, 16]: 23.7 ng/mL
- AUC [2, 16]: 385 ng·h/mL
- half-life [2, 16]: 1130 min
- Tmax [2, 16]: 2.75 h
- concentration at 24 h [2, 16]: 5.93 ng/mL
- CL/F [2, 12]: 25.7 (18.8, 35.1) L/h
- CL/F [2, 14]: 193 (147, 254) L/h
- CL/F [2, 15]: 256 (203, 324) L/h
- CL/F [2, 16]: 260 (202, 335) L/h
- increase in C max by RTV ([2]; single dose after steady‐state predosing with RTV 100 mg QD): 3 fold
- metabolism pathways [3]: Phase I oxidation (primarily by cytochrome P450 [CYP] 3A4) and Phase II glucuronidation
- urinary excretion of drug‐related material [3]: ≤ 1 % administered dose

Source: article PMC5989765, “The safety, tolerability, and pharmacokinetic profile of GSK2838232, a novel 2nd generation HIV maturation inhibitor, as assessed in healthy subjects” (Pharmacology Research & Perspectives, 2018)
